For assay [1], the system named is histone acetyltransferase activity (HAT-activity). Put plainly: HAT activity assay, yeast nuclear extract. The settings on record: extracts of isolated yeast nuclei; spermidine 100 mM. The format is biochemical. How it is done:
Yeast nuclei were isolated from 200 ml BY4741 wild type culture (grown for 24 h in SCD to stationary phase) as described previously (Buttner et al. (2007), Mol Cell 25, 233-246). Nuclear extract was prepared using nuclear extraction buffer from BioVision's Nuclear/Cytosol Fractionation Kit (Bio Vision, K266-25) without DTT addition, according to the manufacturer's protocol. Incubation time was doubled to 80 min with vortexing every 8 minutes. Protein concentration was determined via Bradford, giving yields of approximately 1 mg/ml protein. Yeast nuclear extract was immediately subjected to HAT activity assays.
For HAT-activity determination the commercially available HAT Activity Colorimetric Assay KIT from BioVision (Bio Vision K332-100) was employed. HAT assays were performed according to the manufacturer's protocol. […] Development of tetrazolium dye was measured by absorption at 440 nm using a GeniosPro plate reader (Tecan). Background readings were done with samples without NADH generating enzyme, giving the nuclear extracts unspecific background activity and eliminate any possible negative effects of spermidine addition on the assay itself. […] Calculated slopes of spermidine treated samples were compared to slopes of untreated samples which were set to a relative activity of 100%.

Assay [2] has as its system chronologically aging wild type yeast cells. Description: Yeast cell death and oxidative stress markers (DHE, Annexin V/PI). The format is cell-based. From the text:
For chronological aging experiments, cultures were inoculated from fresh overnight cultures to OD600 of 0.1 (˜1·10^6 cells/ml) with culture volume being 10% of flask volume and aliquots were taken out to perform survival plating at indicated time points (Herker, at al. (2004) J. Cell Biol. 164, 501-507. Survival at day 1 of wild type control cultures was set to 100% and other samples calculated accordingly. If not otherwise indicated, representative aging experiments are shown with at least three independent samples (as indicated) aged at the same time, which have been repeated at least twice with similar outcome. In case of experiments with Δspe1 (FIG. 24 A-E), all strains were inoculated to 5·10^4 cells/ml. Upon deletion of both IKI3 and SAS3 we observed slight aggregation of cells possibly due to a defect in late budding events. Therefore, for calculation of survival rates in experiments using Δiki3Δsas3, cell numbers of each sample were determined after two pulse of sonication on ice with Sonifier 250 from Benson (Duty Cycle: 35; Output Control: 2.5). Tests for apoptotic (TUNEL and Annexin V staining) and necrotic (PI staining) markers as well as markers for oxidative stress (DHE staining) were performed as described in Dod et al. (1982) Eur J Biochem 121, 401-405). For quantifications using flow cytometry (BD FACSAria), 30,000 cells were evaluated and analyzed with BD FACSDiva software. Spermidine (S4139, Sigma, Austria) and putrescine (P5780, Sigma, Austria; 1 mM final concentration) were added to stationary cultures at day 1 of the aging experiments (24 h after inoculation). 1 M aqueous stock solution of spermidine was stored in one use aliquots at −20° C. for no longer than 1 month. For adjustment of extracellular pH (pHex) to 6 (±0.5), the required amount of sodium hydroxide was added 30 h after inoculation. […]
As a further marker for necrosis, nuclear release of the yeast HMGB1 homolog (Nhp6Ap) was monitored by epifluorescence microscopy of ectopically expressed chimeric fusion protein Nhp6Ap-EGFP. […]

For assay [3], the system named is general HAT activity in extracts of mammalian nuclei. Description: HAT activity assay, nuclear extract of HeLa-cells. The format is biochemical. Conditions: extracts of mammalian nuclei (data not shown); spermidine 100 mM. As to the method: For HAT-activity determination the commercially available HAT Activity Colorimetric Assay KIT from BioVision (Bio Vision K332-100) was employed. HAT assays were performed according to the manufacturer's protocol. In brief, assays were performed with each 15 μg of yeast nuclear extract or nuclear extract of HeLa-cells (Bio Vision K332-100-4), respectively. Spermidine was added at a final concentration of 100 mM 15 minutes after assay initiation. Development of tetrazolium dye was measured by absorption at 440 nm using a GeniosPro plate reader (Tecan). Background readings were done with samples without NADH generating enzyme, giving the nuclear extracts unspecific background activity and eliminate any possible negative effects of spermidine addition on the assay itself. […] Regression coefficients of R^2>0.99 were obtained. Calculated slopes of spermidine treated samples were compared to slopes of untreated samples which were set to a relative activity of 100%.

Assay [4] relates to pre-aged wild type yeast cells. Description: Stress of pre-aged yeast by heat shock or hydrogen peroxide. It counts as cell-based. The settings on record: aged to day 24 with 4 mM spermidine; 4 h, 3 mM H2O2 or 42° C. As to the method:
Survival of pre-aged wild type cells stressed for 4 h with hydrogen peroxide (3 mM H2O2) or heat shock (42° C.) compared to unstressed cells. Cells were chronologically aged until day 24 with or without addition of 4 mM spermidine. Data represent means±SEM (n=4). *p<0.05 and ***p<0.001. B) Free thiol group concentration (indicative of oxidative stress level) in blood serum of aging mice with or without (control) supplementation of drinking water with 0.3 and 3 mM spermidine for 200 days. Data represent means±SEM (n=3). **p<0.01. (C) Intracellular spermidine of mouse liver cells, obtained from the same mice used for RSH measurements presented in (B). Data represent means±SEM (n=3).

[5] abbreviates: spermidine treatment during chronological aging.

SMILES strings stand for the structures.

On to `NCCCCNCCCN` [spermidine], for which the “general HAT activity” value in assay [1] and in assay [3] was “efficiently inhibited” throughout. Moreover, in assay [2] (after 18 days of aging, 50% without spermidine), the “loss of membrane integrity (PI positivity and Annexin V+PI+)” value was “less than 10%”. In addition, the “externalization of phosphatidylserine (Annexin V+PI− cells), early apoptotic marker” value in assay [2] (setting [5]) is listed as “remained largely unaltered”. Moreover, in assay [2] (setting [5]), the “markers of necrosis and oxidative stress (DHE positivity)” value is “drastically diminished”. In addition, the “resistance against stress inflicted by heat shock or H2O2 treatment” value in assay [4] is “strong resistance”.

(Values after patent publication US20120015901A1, “METHODS AND PREPARATIONS FOR PROTECTING CRITICALLY ILL PATIENTS” (priority 2009, published 2012).)
